Measured values: PubChem BioAssay (NCI)
Values joined by “and” are separate entries in the source; they are usually repeats but may differ in a detail not shown here. Equal entries are not always repeated.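 Five concentrations, 48 hours, 96-well plates. At the GI50, growth is halved. TGI denotes the concentration required for complete inhibition of growth.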

Key:
Assay in all cases: NCI-60 cell line screen, 48 h
A498 renal = tested on: A498 renal
A549 NSCLC = tested on: A549 NSCLC
MDA-MB-231 breast = tested on: MDA-MB-231 breast
IGROV1 ovarian = tested on: IGROV1 ovarian
NCI-H460 lung = tested on: NCI-H460 lung
SF-539 CNS = tested on: SF-539 CNS
HCC-2998 colon = tested on: HCC-2998 colon
KM12 colon = tested on: KM12 colon
UO-31 renal = tested on: UO-31 renal
MOLT-4 leukemia = tested on: MOLT-4 leukemia

Row | SMILES | TGI (A498 renal) | TGI (A549 NSCLC) | TGI (MDA-MB-231 breast) | TGI (IGROV1 ovarian) | TGI (NCI-H460 lung) | TGI (SF-539 CNS) | TGI (HCC-2998 colon) | TGI (KM12 colon) | TGI (UO-31 renal) | TGI (MOLT-4 leukemia) | GI50 (A498 renal) | GI50 (A549 NSCLC) | GI50 (MDA-MB-231 breast) | GI50 (MOLT-4 leukemia) | GI50 (IGROV1 ovarian) | GI50 (NCI-H460 lung) | GI50 (SF-539 CNS) | GI50 (HCC-2998 colon) | GI50 (KM12 colon) | GI50 (UO-31 renal)
1 | CN(C)CCSCCO | > 100 µM | > 100 µM | > 100 µM | > 100 µM | > 100 µM | > 100 µM | > 100 µM | > 100 µM | > 100 µM |  |  |  |  |  |  |  |  |  |  | 
2 | CCc1ccc2nccc(NCCCN(C)C)c2c1[N+](=O)[O-] | > 100 µM | > 100 µM | > 100 µM | > 100 µM | > 100 µM |  | > 100 µM | > 100 µM | > 100 µM | > 100 µM |  |  |  |  |  |  |  |  |  | 
3 | COc1cccc(N=N/C(=N\NC(=O)c2cc(Br)ccc2O)c2ccc(N(CCC#N)CCC#N)cc2OC)c1 | > 150 µg/mL | > 150 µg/mL | > 150 µg/mL | > 150 µg/mL | 82.7 µg/mL | > 150 µg/mL | 73.2 µg/mL | 83.4 µg/mL | > 150 µg/mL | > 150 µg/mL | 150 µg/mL | 49.3 µg/mL | 71.9 µg/mL | 54.7 µg/mL | 53.7 µg/mL | 24.9 µg/mL | 42.7 µg/mL | 21.3 µg/mL | 26.9 µg/mL | 68 µg/mL
4 | CNC1=C(C(=O)OC)SC(c2ccccc2)(c2ccccc2)SC1 | 85.3 µM | > 100 µM | > 100 µM |  | > 100 µM | > 100 µM | > 100 µM | > 100 µM | > 100 µM | > 100 µM | 11.4 µM | 9.63 µM | 45.8 µM | 7.56 µM |  | 16.9 µM | 26.3 µM | 13.1 µM | 6.92 µM | > 100 µM
5 | Cc1cc(C)c(S(=O)(=O)N(CCc2cccc(Br)c2)Cc2ccc(-c3cccc(S(C)(=O)=O)c3)cc2)c(C)c1 | > 100 µM | > 100 µM | > 100 µM | > 100 µM | > 100 µM | > 100 µM | > 100 µM | > 100 µM | > 100 µM | > 100 µM | > 100 µM | > 100 µM | > 100 µM | > 100 µM | > 100 µM | > 100 µM | > 100 µM | > 100 µM | > 100 µM | > 100 µM
6 | CCNNC(=O)[C@@H]1[C@H](c2cc(OC)c(OC)c(OC)c2)c2cc3c(cc2[C@H](O)[C@H]1CO)OCO3 | 0.703 µM | > 100 µM | > 100 µM | > 100 µM | > 100 µM | 0.802 µM | > 22.2 µM | > 100 µM | > 100 µM | > 100 µM | 0.211 µM | 0.376 µM | 0.5 µM | 0.4 µM | 0.59 µM | 0.343 µM | 0.294 µM | 0.374 µM | 0.387 µM | 4.32 µM
7 | Cc1ccc(Nc2cc(C)nc(NCCCNc3ccnc4cc(Cl)ccc34)n2)cc1 | 2.4 µM | 3.41 µM | 2.87 µM | 3.98 µM | 3.23 µM | 3.05 µM | 2.8 µM | 3.26 µM | 2.87 µM | 6.67 µM | 1.06 µM | 1.65 µM | 1.38 µM | 2.01 µM | 1.82 µM | 1.57 µM | 1.59 µM | 1.38 µM | 1.69 µM | 1.43 µM
8 | C[C@@H](COCCC(=O)N1CCN(c2ncc(C(F)(F)F)cn2)CC1)Nc1cn[nH]c(=O)c1C(F)(F)F |  | > 100 µM | > 100 µM | > 100 µM | > 100 µM | > 100 µM | > 100 µM | > 100 µM | > 100 µM | > 100 µM | 0.0219 µM | 45.7 µM | > 100 µM | 22.9 µM | 42.2 µM | 18.6 µM | 16.4 µM | > 100 µM | > 100 µM | 32.1 µM
9 | C=C1C(=O)OC2/C=C(\CO)CC/C=C(\CO)CC(OC(=O)C(C)C)C12 (stereo unspecified) | 59.2 µM | 37 µM | 38 µM | 33.6 µM | 38.6 µM | 29 µM | 37.2 µM | 33.5 µM | 27.4 µM | > 27.4 µM |  |  |  |  |  |  |  |  |  | 
10 | CCCCCCCCCCCCCCCCCCOc1ccccc1CC(=O)NCC[N+](C)(C)C | 49.8 µM | 51.8 µM | 66.6 µM |  | 52.4 µM | 37 µM | 21.9 µM |  | 80.4 µM |  | 9.55 µM | 4.91 µM | 4.27 µM |  |  | 3.47 µM | 5.48 µM | 3.15 µM |  | 17.9 µM
11 | CCOC(=O)C(C(=O)OCC)C(=O)c1ccccc1C(=O)c1ccccc1 | > 100 µM | > 100 µM | > 100 µM | > 100 µM | > 100 µM | > 100 µM | > 100 µM | > 100 µM | > 100 µM | 83.6 µM |  |  |  |  |  |  |  |  |  | 
12 | CC(C)C[C@H](NC(=O)[C@@H](NC(=O)c1cccc(-c2ccccc2)n1)[C@@H](C)O)B(O)O | 0.0061 µM and < 0.0178 µM | 8.58 µM |  | 0.171 µM | 0.532 µM | 0.00684 µM and < 0.0114 µM | 0.0171 µM and 0.0189 µM | 0.0672 µM and 0.022 µM | 0.0849 µM and 0.114 µM | 0.00887 µM | 0.00247 µM | 0.0173 µM and 0.0188 µM | 0.00485 µM and 0.0191 µM | 0.00289 µM | 0.0256 µM and 0.0229 µM | 0.0285 µM and 0.0237 µM | 0.00264 µM | 0.00517 µM and 0.0116 µM | 0.0132 µM and 0.0127 µM | 0.0215 µM and 0.0183 µM
13 | Nc1c(C(=O)N/N=C/c2ccc(-c3cc(Cl)c(Cl)cc3Cl)o2)cnn1-c1ccnc2c(C(F)(F)F)cccc12 | 37.7 µM | > 100 µM | 22 µM | > 100 µM | 16.9 µM | 38.7 µM | > 100 µM | > 100 µM | > 100 µM | > 100 µM | 3.89 µM | 4.3 µM | 3.83 µM | 2.91 µM | 4.53 µM | 3.73 µM | 5.48 µM | 3.64 µM | 3.83 µM | 3.49 µM
14 | O=S(=O)(NC1=NCCN1C(=S)SN1CCn2c1nsc2=S)c1ccccc1Cl | 59 µM | > 100 µM | 71.1 µM | > 100 µM |  | 31.5 µM | 29.5 µM | 42.8 µM | > 100 µM | 14.1 µM | 24.6 µM | 32.5 µM | 22.5 µM | 2.02 µM | 34.8 µM |  | 12.9 µM | 15.9 µM | 17 µM | 26.1 µM
